Results reported in patent publication US10172914B2, “Combination” (Genesis Pharma SA, priority 2015, dated 2019).

How the values were obtained:
[1] = system: Rabbit Model of Acute Myocardial Infarction Injury; experiment: Rabbit ischemia-reperfusion model, exenatide and potassium canrenoate, infarct size (Example 3); format: in vivo, New Zealand White rabbits; settings: for IF/AAR: mean ± SEM, exenatide 0.15 μg/Kg and/or P. canrenoate 1 mg/Kg IV bolus 15 min before reperfusion, 30 min ischemia, 180 min reperfusion
[2] = system: Mouse Model of Acute Myocardial Infarction Injury; experiment: Mouse ischemia-reperfusion model, mono-, double and triple therapies, infarct size (Example 5); format: in vivo, C57BL/6 mice; settings: for IF/AAR: mean ± SEM
Procedure: The test/control articles were given intravenously, under general anaesthesia, in order to mimic the expected route of administration in the clinical setting of acute myocardial infarction and primary percutaneous coronary intervention.
The study followed a predetermined placebo controlled design. […] In all cases, treatments (intravenous bolus administration of saline or test articles or their combinations) were performed 20 min after the onset of ischemia (10 min before the initiation of reperfusion). The experiments were terminated 2 h post-reperfusion (end of study); irreversible myocardial injury (infarct size by histomorphometry) at this time-point was evaluated, and was the primary-end-point of the study.
Mice were anaesthetized by intraperitoneal injection (0.01 ml/Kg) with a combination of ketamine, xylazine and atropine (final doses of ketamine, xylazine and atropine were 100, 20 and 0.6 mg/Kg, respectively). Anaesthetic depth was evaluated by loss of pedal reflex to toe-pinch stimulus and breathing rate. A tracheotomy was performed for artificial respiration at 120-150 breaths/min and positive end-expiratory pressure 2.0 (0.2 ml of total tidal volume; Flexivent rodent ventilator, Scireq, Montreal, ON, Canada). A thoracotomy was then performed between the fourth and fifth ribs and the pericardium carefully retracted to visualize the left anterior descending (LAD), which was ligated using an 8-0 prolene monofilament polypropylene suture placed 1 mm below the tip of the left auricle. […] After the ischemic period, the ligature was released allowing reperfusion of myocardium. Throughout experiments, body temperature was maintained at 37±0.5° C. by way of a heating pad and monitored via a thermocouple inserted rectally.
After reperfusion, animals were sacrificed with an intraperitoneal injection of the ketamine (200 mg/Kg) and xylazine (50 mg/Kg) anesthetic mixture (0.02 ml/Kg) hearts were rapidly excited from mice and directly cannulated and washed with 2.5 ml of saline heparin 1% for blood removal. Five ml of 1% TTC phosphate buffer 37° C. were infused into the coronary circulation; the tissue was incubated for 5 min in the same buffer. Evans Blue 1% diluted in distilled water (2.5 ml) was the infused into the heart. Hearts were kept at −20° C. for 24 hours and then sliced in 1 mm sections parallel to the atrioventricular groove, and then fixed in 4% formalin overnight. […] The areas of myocardial tissue at risk and infarcted were automatically transformed into volumes. Infarct and risk area volumes were expressed in cm^3. For each slide, the AAR was expressed as a percentage of the LV area (AAR/LV), and the IF was expressed as a percentage of the AAR (IF/AAR). In all cases, quantitative histomorphometry was performed by personnel blinded to the treatment assignment/study-design.
All results are presented as mean+SEM. Comparisons of numeric variables among the groups were analyzed using an one-way analysis of variance (ANOVA) model with Bonferroni correction and with Tukey post hoc analysis. […] A calculated P-value of less than 0.05 was considered to be statistically significant.

[3] = exenatide 0.05 μg/Kg, cyclosporine 0.15 mg/Kg, P. canrenoate 1 mg/Kg, alone or in double/triple combination
[4] = monotherapy doses: exenatide 0.001 μg/Kg, cyclosporine 0.001 mg/Kg, P. canrenoate 0.03 mg/Kg
[5] = monotherapy doses: exenatide 0.005 μg/Kg, cyclosporine 0.01 mg/Kg, P. canrenoate 0.3 mg/Kg
[6] = monotherapy doses: exenatide 0.15 μg/Kg, cyclosporine 0.5 mg/Kg, P. canrenoate 10 mg/Kg

`C[C@]12CCC(=O)C=C1C=C[C@@H]1[C@@H]2CC[C@@]2(C)[C@H]1CC[C@@]2(O)CCC(=O)[O-].[K+]` [P. CANRENOATE, potassium 3-[(8R,9S,10R,13S,14S,17R)-17-hydroxy-10,13-dimethyl-3-oxo-2,8,9,11,12,14,15,16 octahydro-1H-cyclopenta[a]phenanthren-17-yl]propanoate] was tested, and the “reduction of the extent of infarct” value ([1]; compared with the control group, exenatide 0.15 μg/Kg and/or potassium canrenoate 1 mg/Kg) was 30.5%, the “Different (%) in IF/AAR from Control” value ([1]; exenatide 0.15 μg/Kg and/or P. canrenoate 1 mg/Kg) was −30.5% and the IF/AAR [1] was 34.36 ± 2.83%. The IF/AAR ([1]; listed as potassium canrenoate) was 34.36±2.83%, the “reduction of infarct size / extent of infarct” value ([2]; compared with the control group, exenatide 0.05 μg/kg, cyclosporine 0.15 mg/kg, potassium canrenoate 1 mg/kg, alone or combined) was 30% and the “reduction of infarct size” value ([2]; compared with the control group, potassium canrenoate 10 mg/kg monotherapy) was 58.9%. The “Different (%) in IF/AAR from Control” value [2, 3] was −30%, the IF/AAR [2, 3] was 33.2 ± 2.4% and the IF/AAR ([2]; exenatide 0.05 μg/Kg, cyclosporine 0.15 mg/Kg, P. canrenoate 1 mg/Kg, alone or in double/triple combination, listed as potassium canrenoate) was 33.2±2.4%. For the same compound, the IF/AAR [2, 4] was 46 ± 2.5%, the IF/AAR [2, 5] was 44 ± 3.2% and the IF/AAR [2, 6] was 19.5 ± 2.5%. The IF/AAR ([2]; monotherapy doses: exenatide 0.15 μg/Kg, cyclosporine 0.5 mg/Kg, P. canrenoate 10 mg/Kg, listed as potassium canrenoate) was 19.5±2.5%, the “Different (%) in IF/AAR from Control” value [2, 4] was −3% and the “Different (%) in IF/AAR from Control” value [2, 5] was −7.2%. For the same compound, the “Different (%) in IF/AAR from Control” value [2, 6] was −58.9%.
